From PubChem BioAssay AID248 (DTP/NCI, 2004)
Values joined by “and” are separate entries in the source; they are usually repeats but may differ in a detail not shown here. Identical values can stand only once. Toxic doses and inconclusive results are not listed. Cut-off read from the data, not from the text of the source: active = T/C of 150% or more; inactive = T/C below 125%.

System: L1210 leukemia ip in BDF1 mice, survival T/C
Experiment: NCI In Vivo Anticancer Drug Screen. Data for tumor model L1210 Leukemia (intraperitoneal) in B6D2F1 (BDF1) mice
Details: endpoint: mean survival time, higher = longer survival
How it was run: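 Antitumor effect is assessed in tumor-bearing animals. Survival in the compound arm is compared with a vehicle-dosed control arm and expressed as their quotient.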

[1] = dose: 75.0 mg/kg/injection, schedule: Q01DX001 (ip), vehicle: saline
[2] = dose: 150.0 mg/kg/injection, schedule: Q01DX001 (ip), vehicle: saline
[3] = dose: 200.0 mg/kg/injection, schedule: Q01DX001 (ip), vehicle: Klucel (hydroxypropylcellulose) (HPC)
[4] = dose: 200.0 mg/kg/injection, schedule: Q01DX001 (ip), vehicle: saline
[5] = dose: 100.0 mg/kg/injection, schedule: Q01DX001 (ip), vehicle: carboxymethylcellulose (CMC)
[6] = dose: 200.0 mg/kg/injection, schedule: Q01DX001 (ip), vehicle: carboxymethylcellulose (CMC)
[7] = dose: 400.0 mg/kg/injection, schedule: Q01DX001 (ip), vehicle: carboxymethylcellulose (CMC)
[8] = dose: 100.0 mg/kg/injection, schedule: Q04DX002 (ip), vehicle: Klucel (hydroxypropylcellulose) (HPC)
[9] = dose: 200.0 mg/kg/injection, schedule: Q04DX002 (ip), vehicle: Klucel (hydroxypropylcellulose) (HPC)
[10] = dose: 100.0 mg/kg/injection, schedule: Q04DX003 (ip), vehicle: saline with Tween-80
[11] = dose: 100.0 mg/kg/injection, schedule: Q04DX003 (ip), vehicle: Klucel (hydroxypropylcellulose) (HPC)
[12] = dose: 200.0 mg/kg/injection, schedule: Q04DX003 (ip), vehicle: Klucel (hydroxypropylcellulose) (HPC)
[13] = dose: 400.0 mg/kg/injection, schedule: Q04DX003 (ip), vehicle: Klucel (hydroxypropylcellulose) (HPC)
[14] = dose: 100.0 mg/kg/injection, schedule: Q01DX009 (ip), vehicle: Klucel (hydroxypropylcellulose) (HPC)
[15] = dose: 200.0 mg/kg/injection, schedule: Q01DX009 (ip), vehicle: Klucel (hydroxypropylcellulose) (HPC)
[16] = dose: 400.0 mg/kg/injection, schedule: Q01DX009 (ip), vehicle: Klucel (hydroxypropylcellulose) (HPC)

Measured: T/C

COc1cc(-c2c3c(cc4c2OCO4)CC(O)C(C(=O)O)C3)cc(OC)c1OC (stereo unspecified)
inactive: [1] 95 % of control | [2] 116 % of control | [3] 109 % of control | [4] 114 % of control | dose: 300.0 mg/kg/injection, schedule: Q01DX001 (ip), vehicle: Klucel (hydroxypropylcellulose) (HPC) 116 % of control

O=c1oc(-c2cccc([N+](=O)[O-])c2)nc2ccccc12
inactive: dose: 50.0 mg/kg/injection, schedule: Q01DX009 (ip), vehicle: saline with Tween-80 97 % of control | dose: 100.0 mg/kg/injection, schedule: Q01DX009 (ip), vehicle: saline with Tween-80 94 % of control | dose: 200.0 mg/kg/injection, schedule: Q01DX009 (ip), vehicle: saline with Tween-80 93 % of control

O=[N+]([O-])c1ccc(N=Nc2ccc3c(c2)-c2ccccc2C3=P(c2ccccc2)(c2ccccc2)c2ccccc2)cc1
inactive: [5] 108 % of control | [6] 98 % of control | [7] 93 % of control

CCCCCCCCCCCCNCCC#N
inactive: dose: 100.0 mg/kg/injection, schedule: Q04DX002 (sc), vehicle: olive oil, sesame oil, peanut oil 100 % of control | dose: 200.0 mg/kg/injection, schedule: Q04DX002 (sc), vehicle: olive oil, sesame oil, peanut oil 98 % of control | dose: 400.0 mg/kg/injection, schedule: Q04DX002 (sc), vehicle: olive oil, sesame oil, peanut oil 98 % of control

CCNC(=O)NCc1ccc(Cl)c(Cl)c1
inactive: [8] 105 % of control | [9] 99 % of control

C/C=C/c1cc(OC)cc(C2(O)OC(=O)c3c(OC)cccc32)c1OC (stereo unspecified)
inactive: [10] 105 % of control | dose: 200.0 mg/kg/injection, schedule: Q04DX003 (ip), vehicle: saline with Tween-80 94 % of control | dose: 400.0 mg/kg/injection, schedule: Q04DX003 (ip), vehicle: saline with Tween-80 100 % of control

CC(Nc1nc(SCc2ccccc2)c2ncn(C3OC(CO)C(O)C3O)c2n1)C(=O)O (stereo unspecified)
inactive: dose: 50.0 mg/kg/injection, schedule: Q01DX001 (ip), vehicle: carboxymethylcellulose (CMC) 107 % of control | [5] 109 % of control | [6] 104 % of control | [7] 104 % of control

OC1C2CCN(CC2)C1C(c1ccccc1)c1ccccc1 (stereo unspecified)
inactive: dose: 25.0 mg/kg/injection, schedule: Q04DX003 (ip), vehicle: saline with Tween-80 95 % of control | dose: 50.0 mg/kg/injection, schedule: Q04DX003 (ip), vehicle: saline with Tween-80 98 % of control | [10] 96 % of control and 87 % of control

O=C(O)/C=C/C(=O)Nc1cccc(C(F)(F)F)c1
inactive: [8] 100 % of control | [9] 100 % of control | dose: 400.0 mg/kg/injection, schedule: Q04DX002 (ip), vehicle: Klucel (hydroxypropylcellulose) (HPC) 96 % of control

Cc1cc(C)n(/N=C/c2c[nH]c3ccccc23)c(=O)c1C#N
inactive: dose: 100.0 mg/kg/injection, schedule: Q01DX001 (ip), vehicle: Klucel (hydroxypropylcellulose) (HPC) 97 % of control | [11] 97 % of control | [3] 97 % of control | [12] 94 % of control | dose: 400.0 mg/kg/injection, schedule: Q01DX001 (ip), vehicle: Klucel (hydroxypropylcellulose) (HPC) 96 % of control | [13] 97 % of control

CCOC(=O)C1(C)C(=O)CC2c3nc4ccccc4cc3CN2C1=O (stereo unspecified)
inactive: [14] 109 % of control | [11] 107 % of control | [15] 113 % of control | [12] 100 % of control | [16] 92 % of control | [13] 97 % of control

NS(=O)(=O)c1ccc(S(=O)(=O)N2CCCCC2)cc1
inactive: [14] 90 % of control | [15] 96 % of control

CN(C)CCOC(=O)c1ccc(CCl)cc1
inactive: dose: 87.5 mg/kg/injection, schedule: Q01DX009 (ip), vehicle: saline 87 % of control | dose: 175.0 mg/kg/injection, schedule: Q01DX009 (ip), vehicle: saline 101 % of control

COc1cc2c(cc1OC)C(CNC(=O)/C=C/c1ccccc1)C2 (stereo unspecified)
inactive: [14] 106 % of control | [11] 101 % of control | [15] 101 % of control | [12] 94 % of control | [16] 95 % of control | [13] 97 % of control

CCCCN(CCCC)C(C)=O
inactive: dose: 50.0 mg/kg/injection, schedule: Q01DX001 (ip), vehicle: saline 94 % of control | dose: 50.0 mg/kg/injection, schedule: Q04DX002 (ip), vehicle: saline with Tween-80 109 % of control | dose: 100.0 mg/kg/injection, schedule: Q01DX001 (ip), vehicle: saline 100 % of control | dose: 100.0 mg/kg/injection, schedule: Q04DX002 (ip), vehicle: saline with Tween-80 95 % of control | [4] 100 % of control | dose: 200.0 mg/kg/injection, schedule: Q04DX002 (ip), vehicle: saline with Tween-80 98 % of control

CCS(=O)(=O)C(c1ccccc1)S(=O)(=O)CC
inactive: [5] 95 % of control | [6] 87 % of control | [7] 98 % of control

C=C(C)C1(CCCC)C(=O)NC(=O)NC1=O
inactive: [1] 104 % of control and 102 % of control | [2] 107 % of control and 100 % of control | dose: 300.0 mg/kg/injection, schedule: Q01DX001 (ip), vehicle: saline 102 % of control

CCCCCCCCCCCCCCCCOc1ccc(C(=O)Nc2ccc(S(=O)(=O)Nc3cccc4ccccc34)cc2)cc1S(=O)(=O)F
inactive: [11] 102 % of control | [12] 100 % of control | [13] 93 % of control
